Source: US4834982A, “Potassium-neutral salureticum with anti-hypertensive effect” (priority 1987, dated 1989)
Values joined by “and” are separate entries in the source; they are usually repeats but may differ in a detail not shown here. Identical values can stand only once. Like-named read-outs stand apart in the source and are kept apart here. Each block holds one compound with its values, some of them ahead of it.

What was measured:
[1] = in vivo; cited from earlier work
[2] = critical micelle concentration / equilibrium surface tension measurements; assay type: physicochemical; details: substances separately, 37° C.
Source text: Since the interfacial molecular areas can be determined from the slopes of equilibrium surface tensions measurements from FIG. A,B, just below the break points, they are easy to compare.

[3] = contact angle measurements; assay type: physicochemical
[4] = 40 mg furosemide, normal volunteers; cited from earlier work
[5] = 50 mg/day or 100 mg/day triamterene with 40 mg/day furosemide; cited from earlier work
[6] = solubilization and binding thermodynamics of furosemide in triamterene micelles; assay type: physicochemical
[7] = solubility of furosemide and triamterene; assay type: physicochemical
[8] = solute permeability of ions on artificial membranes; details: 0.30 mM
[9] = cited from earlier work

SMILES: NS(=O)(=O)c1cc(C(=O)O)cc(N2CCCC2)c1Oc1ccccc1 [peritanide]
half life time t1/2 [1]: about 1 h

critical micelle concentration (CMC) [2]: 83 µM
contact angle [3]: 59 deg.
contact angle ([3]; complexing to stearate, phthalate, etc.): 108 deg
SMILES: NS(=O)(=O)c1cc(C(=O)O)c(NCc2ccco2)cc1Cl [furosemide]

triamterene molecules required to solubilize furosemide (controlled release form of furosemide at basic pH): 320-350 molecules
K(T) of triamterene micelle, times smaller than for a furosemide micelle [6]: roughly 15 times
limiting value of n (aggregation number of triamterene micelles) ([6]; pH 2.5): 15
limiting value of n (aggregation number of triamterene micelles) ([6]; pH 7.9): 25
solubility ([7]; 37° C., molar equivalent): 0.0001184 mol/L
solubility ([7]; 37° C., molar equivalent in parentheses): 0,11 mMol
solubility ([7]; molar, read-out: solubility): 0.000118 mol/L
solubility ([7]; pH 5.5, read-out: solubility): 30 µg/mL
solubility ([7]; pH 9-11.0): 5 µg/mL
critical micelle concentration (CMC) [2]: 15 µM
contact angle [3]: 100 deg.
SMILES: Nc1nc(N)c2nc(-c3ccccc3)c(N)nc2n1 [triamterene]
triamterene molecules required to solubilize furosemide and furosemide in controlled release form (molar basis): 298 molecules and 320 molecules and 324 molecules
oral dose required to block the kaliuretic effect of furosemide [4]: 50 mg and 100 mg
natriuretic effect [5]: agument the natriuretic effect
half life time t1/2 [1]: 3.0 h
Solute permeability K (Cl) ([8]; compartment A): 170,3 ± 10,0 mol·s^-1·N^-1
Solute permeability Na (Cl) ([8]; compartment A): 111,2 ± 12,0 mol·s^-1·N^-1
Solute permeability K (Cl) ([8]; compartment B): 90,5 ± 5,0 mol·s^-1·N^-1
Solute permeability Na (Cl) ([8]; compartment B): 207,4 ± 8,0 mol·s^-1·N^-1

SMILES: CCCCNc1cc(C(=O)O)cc(S(N)(=O)=O)c1Oc1ccccc1 [bumetanide]
half life time t1/2 [1]: about 1 h

SMILES: Nc1nc(N)c2nc(-c3ccc(OS(=O)(=O)O)cc3)c(N)nc2n1 [hydroxy-triamterene-sulfuric acid ester]
plasma concentration relative to triamterene ([9]; intravenous, simultaneous with furosemide): about ten
potassium loss caused by furosemide ([9]; simultaneous intravenous administration with furosemide): can be impeded
